Like-named read-outs stand apart in the source and are kept apart here.
Legend:
human eIF4E protein = target: T1, human eIF4E protein (Homo sapiens, UniProt P06730); experiment: Biochemical competitive binding assay (TR-FRET competition, EDA-m7GDP-ATTO-647N probe); details: read-out: hEIF4E TR-FRET IC50
T1 construct: purchased Novus NBP-45314
Outline: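 His-tagged human eIF4E (4 nM) was preincubated with Eu-anti-His antibody (2.5 nM) and added to compound (11-point, 4-fold dilutions) for 15 min. Then 5 nM EDA-m7GDP-ATTO-647N was added for 15 min, in HEPES pH 7.5, 100 mM KCl. The 665/620 TR-FRET ratio was normalized to controls, and IC50 was taken from 4-parameter fits.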

[1] = tested on: cap-dependent translation in Flp-In-293 reporter cells; experiment: Cellular cap-dependent translation inhibition assay (dual luciferase assay, DLA; Fluc/Rluc ratio, 24 hours); type: cell-based; details: dual luciferase assay, Flp-In-293 reporter cells, 24 hours, Fluc/Rluc ratio, read-out: DLA 205 IC50
[2] = tested on: COLO 205 colorectal tumor cells; experiment: Tumor cell viability inhibition assay (CellTiter-Glo 2.0, 72 hours); type: cell-based; details: COLO 205 cell viability
Outline: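 COLO 205 cells (1500/well, RPMI-1640 + 10% FBS) exposed for 72 h to an 11-point, 4-fold dilution series; cellular ATP read by CellTiter-Glo 2.0 luminescence. Data normalized to DMSO and maximum-inhibition controls; IC50 from 4-parameter curve fit.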

T1 sequence (P06730 whole entry): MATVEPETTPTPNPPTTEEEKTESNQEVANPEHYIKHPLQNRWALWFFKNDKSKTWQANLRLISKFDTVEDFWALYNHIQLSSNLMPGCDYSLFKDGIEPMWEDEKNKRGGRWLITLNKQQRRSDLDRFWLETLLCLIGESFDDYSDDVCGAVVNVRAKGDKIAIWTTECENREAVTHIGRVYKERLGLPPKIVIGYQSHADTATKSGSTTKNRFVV

| Structure (SMILES) | IC50 (human eIF4E protein) | IC50 ([1]; Homo sapiens, Flp-In-293, 24 h) | IC50 ([2]; Homo sapiens, COLO 205, 72 h) | IC50 [1] | IC50 [2] |
| --- | --- | --- | --- | --- | --- |
| Cc1cc(-c2cc(Cl)ccc2OCCn2c(C)nc3c(c2=O)C[C@@H](N2CC[C@@H](F)C2)CC3)c2scc(C(=O)NS(C)(=O)=O)c2n1 (single isomer, unassigned) [Compound 312] | < 100 nM | < 1000 nM | < 5000 nM | – | – |
| Cc1nc2c(c(=O)n1CC#Cc1ccc(Cl)cc1-c1ccnc3c(C(=O)NS(C)(=O)=O)csc13)CC(N(C)Cc1ccncc1)CC2 (single isomer, unassigned) [Compound 314] | < 100 nM | – | – | 1000 to 5000 nM | 5000 to 20000 nM |
| Cc1nc2c(c(=O)n1CC#Cc1ccc(Cl)cc1-c1ccnc3c(C(=O)NS(C)(=O)=O)csc13)C[C@H](N1CC[C@@H](F)C1)CC2 (single isomer, unassigned) [Compound 348] | < 100 nM | < 1000 nM | < 5000 nM | – | – |
| Cc1cc(-c2cc(Cl)ccc2OCCn2c(C)nc3c(c2=O)CC(N(C)C2CC(F)(F)C2)CC3)c2scc(C(=O)O)c2n1 (stereo not drawn) [Compound 40, 7-[2-[2-[6-[[3,3-bis(fluorenyl)cyclobutyl]-methyl-amino]-2-methyl-4-oxidanylidene-5,6,7,8-tetrahydroquinazolin-3-yl]ethoxy]-5-chloranyl-phenyl]-5-methyl-thieno[3,2-b]pyridine-3-carboxylic acid; 2,2,2-tris(fluorenyl)acetic acid] | < 100 nM | < 1000 nM | < 5000 nM | – | – |
| Cc1cc(-c2cc(Cl)ccc2OCCn2c(C)nc3c(c2=O)CC(N(C)C2(c4ccc(F)cc4)CC2)CC3)c2scc(C(=O)O)c2n1 (single isomer, unassigned) [Compound 280] | 100 to 500 nM | 1000 to 5000 nM | 5000 to 20000 nM | – | – |
| Cc1cc(-c2cc(Cl)ccc2OCCn2c(C)nc3c(c2=O)CC(N(C)C2CC(F)(F)C2)CC3)c2scc(C(=O)NS(C)(=O)=O)c2n1 (single isomer, unassigned) [Compound 94] | < 100 nM | – | – | < 1000 nM | < 5000 nM |
| Cc1cc(-c2cc(Cl)ccc2OCCn2c(C)nc3c(c2=O)CC(OC2CCN(C)CC2)CC3)c2scc(C(=O)O)c2n1 (stereo not drawn) [Compound 92] | 100 to 500 nM | > 5000 nM | > 20000 nM | – | – |
| Cc1cc(-c2cc(Cl)ccc2OCCn2c(C)nc3c(c2=O)CC(N(C)C24CC(C)(C2)C4(F)F)CC3)c2scc(C(=O)O)c2n1 (stereo not drawn) [Compound 318] | < 100 nM | 1000 to 5000 nM | 5000 to 20000 nM | – | – |
| Cc1cc(-c2cc(Cl)ccc2OCCn2c(C)nc3c(c2=O)CC(N(C)C2CC2)CC3)c2scc(C(=O)O)c2n1 (single isomer, unassigned) [Compound 336] | < 100 nM | – | – | < 1000 nM | < 5000 nM |
| Cc1cc(-c2cc(Cl)ccc2OCCn2c(C)nc3c(c2=O)CC(N2CCCCC2)CC3)c2scc(C(=O)O)c2n1 (single isomer, unassigned) [Compound 249] | < 100 nM | < 1000 nM | 5000 to 20000 nM | – | – |
| Cc1cc(-c2cc(Cl)ccc2OCCn2c(C)nc3c(c2=O)CC(N(C)Cc2ccncc2)CC3)c2sccc2n1 (stereo not drawn) [Compound 75] | 500 to 5000 nM | > 5000 nM | 5000 to 20000 nM | – | – |
| Cc1nc2c(c(=O)n1CC#Cc1ccc(Cl)cc1-c1ccnc3c(C(=O)O)csc13)CC(N(C)C)CC2 (stereo not drawn) [Compound 350] | 500 to 5000 nM | > 5000 nM | > 20000 nM | – | – |
| Cc1cc(-c2cc(Cl)ccc2OCCn2c(C)nc3c(c2=O)C[C@H](N2CCC[C@H](F)C2)CC3)c2scc(C(=O)O)c2n1 (single isomer, unassigned) [Compound 283] | < 100 nM | < 1000 nM | < 5000 nM | – | – |
| Cc1nc2c(c(=O)n1CC#Cc1ccc(Cl)cc1-c1ccnc3c(C(=O)NS(C)(=O)=O)csc13)CC(N(C)C1CC(F)(F)C1)CC2 (single isomer, unassigned) [Compound 333] | < 100 nM | < 1000 nM | < 5000 nM | – | – |
| Cc1cc(-c2cc(Cl)ccc2OCCn2c(C)nc3c(c2=O)CC(N(C)C2CC2)CC3)c2scc(C(=O)O)c2n1 (single isomer, unassigned) [Compound 335] | < 100 nM | < 1000 nM | < 5000 nM | – | – |
| Cc1cc(-c2cc(Cl)ccc2OCCn2c(C)nc3c(c2=O)CC(N(C2CC2)C2CC2)CC3)c2scc(C(=O)O)c2n1 (stereo not drawn) [Compound 352] | < 100 nM | < 1000 nM | < 5000 nM | – | – |
| Cc1cc(-c2cc(Cl)ccc2OCCn2c(C)nc3c(c2=O)C[C@@H](N2CC[C@H](F)C2)CC3)c2scc(C(=O)O)c2n1 (single isomer, unassigned) [Compound 310] | < 100 nM | < 1000 nM | < 5000 nM | – | – |
| Cc1cc(-c2cc(Cl)ccc2OCCn2c(C)nc3c(c2=O)CC(N2CC4(COC4)C2)CC3)c2scc(C(=O)O)c2n1 (stereo not drawn) [Compound 20] | < 100 nM | < 1000 nM | < 5000 nM | – | – |

| Structure (SMILES) | IC50 (human eIF4E protein) | IC50 ([1]; Homo sapiens, Flp-In-293, 24 h) | IC50 ([2]; Homo sapiens, COLO 205, 72 h) | IC50 [1] | IC50 [2] |
| --- | --- | --- | --- | --- | --- |
| Cc1cc(-c2cc(Cl)ccc2OCCn2c(C)nc3c(c2=O)CC(N(C)Cc2cc[nH]c(=O)c2)CC3)c2scc(C(=O)O)c2n1 (single isomer, unassigned) [Compound 246] | < 100 nM | > 5000 nM | > 20000 nM | – | – |
| Cc1cc(-c2cc(Cl)ccc2OCCn2c(C)nc3c(c2=O)CC(N2CC(F)(F)C2)CC3)c2sccc2n1 (single isomer, unassigned) [Compound 340] | 500 to 5000 nM | > 5000 nM | > 20000 nM | – | – |
| Cc1cc(-c2cc(Cl)ccc2OCCn2c(C)nc3c(c2=O)CC(N2CC4COCC4C2)CC3)c2sccc2n1 (stereo not drawn) [Compound 78] | 100 to 500 nM | 1000 to 5000 nM | > 20000 nM | – | – |
| Cc1cc(-c2cc(Cl)ccc2OCCn2c(C)nc3c(c2=O)CC(N2CCN(CC(F)(F)F)CC2)CC3)c2scc(C(=O)O)c2n1 (stereo not drawn) [Compound 278] | < 100 nM | < 1000 nM | < 5000 nM | – | – |
| Cc1cc(-c2cc(Cl)ccc2OCCn2c(C)nc3c(c2=O)CC(N2CC4(CCN(C)CC4)C2)CC3)c2scc(C(=O)O)c2n1 (stereo not drawn) [Compound 22] | < 100 nM | 1000 to 5000 nM | > 20000 nM | – | – |
| COC1CCN(C2CCc3nc(C)n(CCOc4ccc(Cl)cc4-c4cc(C)nc5c(C(=O)NS(C)(=O)=O)csc45)c(=O)c3C2)CC1 (stereo not drawn) [Compound 79] | < 100 nM | < 1000 nM | < 5000 nM | – | – |
| Cc1cc(-c2cc(Cl)ccc2OCCn2c(C)nc3c(c2=O)CC(N(C)C2CCN(CC(F)(F)F)CC2)CC3)c2scc(C(=O)O)c2n1 (stereo not drawn) [Compound 276] | < 100 nM | < 1000 nM | < 5000 nM | – | – |
| Cc1cc(-c2cc(Cl)ccc2OCCn2c(C)nc3c(c2=O)CC(N2CCC(F)(F)CC2)CC3)c2scc(C(=O)NS(C)(=O)=O)c2n1 (single isomer, unassigned) [Compound 251] | < 100 nM | < 1000 nM | < 5000 nM | – | – |
| Cc1cc(-c2cc(Cl)ccc2OCCn2c(C)nc3c(c2=O)CC(N(C)C2(c4ccc(F)cc4)CC2)CC3)c2scc(C(=O)O)c2n1 (single isomer, unassigned) [Compound 281] | 100 to 500 nM | – | – | 1000 to 5000 nM | 5000 to 20000 nM |
| Cc1cc(-c2cc(Cl)ccc2OCCn2c(C)nc3c(c2=O)CC(N(C)Cc2ccncc2)CC3)c2scc(C(=O)O)c2n1 (single isomer, unassigned) [Compound 99] | < 100 nM | 1000 to 5000 nM | 5000 to 20000 nM | – | – |
| Cc1cc(-c2cc(Cl)ccc2OCCn2c(C)nc3c(c2=O)CC(N(CC(F)(F)F)C2CC2)CC3)c2scc(C(=O)O)c2n1 (single isomer, unassigned) [Compound 320] | 100 to 500 nM | – | – | 1000 to 5000 nM | 5000 to 20000 nM |
| Cc1cc(-c2cc(Cl)ccc2OCCn2c(C)nc3c(c2=O)CC(N(C)C(=O)C2CCN(C)CC2)CC3)c2scc(C(=O)O)c2n1 (stereo not drawn) [Compound 74] | < 100 nM | > 5000 nM | > 20000 nM | – | – |
| Cc1cc(-c2cc(Cl)ccc2OCCn2c(C)nc3c(c2=O)CC(N2CCCCC2)CC3)c2ccc(C(=O)NS(C)(=O)=O)n2n1 (stereo not drawn) [Compound 62, 4-[5-chloranyl-2-[2-[2-methyl-4-oxidanylidene-6-(1-piperidyl)-5,6,7,8-tetrahydroquinazolin-3-yl]ethoxy]phenyl]-2-methyl-N-methylsulfonyl-pyrrolo[1,2-b]pyridazine-7-carboxamide] | < 100 nM | < 1000 nM | < 5000 nM | – | – |
| Cc1cc(-c2cc(Cl)ccc2OCCn2c(C)nc3c(c2=O)CC2(CC3)CCN(C3CC3)CC2)c2scc(C(=O)O)c2n1 [Compound 267, 7-(5-chloro-2-(2-(1-cyclopropyl-2′-methyl-4′-oxo-7′,8′-dihydro-4′H-spiro[piperidine-4,6′-quinazolin]-3′(5′H)-yl)ethoxy)phenyl)-5-methylthieno[3,2-b]pyridine-3-carboxylic acid] | < 100 nM | < 1000 nM | 5000 to 20000 nM | – | – |
| Cc1cc(-c2cc(Cl)ccc2OCCn2c(C)nc3c(c2=O)C[C@H](N2CCC[C@@H](F)C2)CC3)c2scc(C(=O)O)c2n1 (single isomer, unassigned) [Compound 323] | < 100 nM | < 1000 nM | < 5000 nM | – | – |
| Cc1nc2c(c(=O)n1CC#Cc1ccc(Cl)cc1-c1ccnc3c(C(=O)NS(C)(=O)=O)csc13)CC(N1CC(F)(F)C1)CC2 (single isomer, unassigned) [Compound 332] | 100 to 500 nM | – | – | > 5000 nM | 5000 to 20000 nM |
| Cc1nc2c(c(=O)n1CC#Cc1ccc(Cl)cc1-c1ccnc3c(C(=O)NS(C)(=O)=O)csc13)CC(N(C)C)CC2 (single isomer, unassigned) [Compound 266] | 500 to 5000 nM | > 5000 nM | > 20000 nM | – | – |
